Holding throughout (type): functional, cell-based
The subject of assay [1] is PEU. Put plainly: Antiviral activity was evaluated by the plaque reduction method against Cytomegalovirus (CMV) in PEU cells. Conditions: Homo sapiens.
The test system of assay [2] is PEU. Put plainly: Compound was tested for its overt cytotoxicity in virus free PEU cell culture. The settings on record: Homo sapiens.
The subject of assay [3] is Vero. Kind of assay: Antiviral activity was evaluated by the plaque reduction method against Herpes virus 1 (HSV-1) in Vero cells. Conditions: Chlorocebus sabaeus.
In assay [4] the test system is Vero. Put plainly: Antiviral activity was evaluated by the plaque reduction method against Herpes virus 2 (HSV-2) in Vero cells. Conditions: Chlorocebus sabaeus.

`Nc1nc(O)c2ncn(C3CCC(O)CC3O)c2n1` (configuration not stated): the EC50 in the assay with PEU [1], in the assay with Vero [3] and in the assay on Vero [4] was 188 µM each time. The compound further showed an IC50 with PEU [2] of over 250 µM.

With `O=c1ccn([C@@H]2C[C@@H](OCc3ccccc3)CC[C@H]2O)c(=O)[nH]1`, the EC50 in the assay with PEU [1], with Vero [3] and in the assay with Vero [4] was 10 µM throughout. Also, the IC50 in the assay with PEU [2] was over 250 µM.

On to `O=c1ccn(C2CCC(O)CC2O)c(=O)[nH]1` (configuration not stated), for which the EC50 was found to be 10 µM in the assay with PEU [1], 0.97 µM with Vero [3] and 0.97 µM in the assay with Vero [4]. For the same compound, the IC50 in the assay with PEU [2] is over 250 µM.

For `Nc1nc(O)c2ncn(C3CCC(OCc4ccccc4)CC3O)c2n1` (configuration not stated), the EC50 in the assay on PEU [1] amounted to 140 µM; with Vero [3] it was 21.2 µM; in the assay on Vero [4] it was 22.1 µM. Further, in the assay on PEU [2], the IC50 was over 250 µM.

Regarding `Nc1ncnc2c1ncn2C1CCC(O)CC1O` (configuration not stated), the values for the EC50 in the assay on PEU [1], in the assay on Vero [3] and in the assay on Vero [4] were 200 µM, 28.5 µM and 30 µM, respectively. This compound also registered an IC50 with PEU [2] of over 250 µM.

In the case of `O=c1ccn([C@@H]2CC[C@H](OCc3ccccc3)C[C@H]2O)c(=O)[nH]1`, the values for the EC50 with PEU [1], in the assay with Vero [3] and in the assay on Vero [4] were 10 µM, 158 µM and 158 µM, respectively. The compound also registered a half-inhibitory concentration (IC50) in the assay with PEU [2] of over 250 µM.

Regarding `O=c1ccn(C2CC(O)CCC2O)c(=O)[nH]1` (configuration not stated), the EC50 with PEU [1] stood at 0.97 µM; in the assay on Vero [3], 10 µM; in the assay on Vero [4], 0.97 µM. For the same compound, the IC50 in the assay with PEU [2] is over 250 µM.

On to `Nc1ncnc2c1ncn2C1CCC(OCc2ccccc2)CC1O` (configuration not stated), for which the EC50 with PEU [1] was determined as 147 µM; in the assay with Vero [3] it was 16.8 µM; in the assay with Vero [4] it was 16.2 µM. Moreover, in the assay with PEU [2], the IC50 was over 250 µM.

The values above are taken from ChEMBL document CHEMBL1128066, “Synthesis and antiviral activity of dihydroxycyclohexyl pyrimidine and purine carbocyclic nucleosides” (Bioorg Med Chem Lett, 1995).
